From PubChem BioAssay (NCI)
Several values for one entry are separate records, joined by “and”; a condition that tells them apart may be missing. Equal values may be shown once.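 Step 1: Grow cells in 96-well plates. Step 2: Expose to compound for 48 hours at 5 concentrations. Step 3: Interpolate endpoints linearly; if unreached, use highest concentration. GI50: concentration for 50% inhibition of growth. TGI: total growth inhibition.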

Legend:
Test in all cases: NCI-60 cell line screen, 48 h
[1] = test system: A549 NSCLC
[2] = test system: BT-549 breast
[3] = test system: COLO 205 colon
[4] = test system: DU-145 prostate
[5] = test system: MALME-3M melanoma
[6] = test system: MCF7 breast
[7] = test system: NCI-H522 lung
[8] = test system: SF-295 CNS
[9] = test system: SF-539 CNS
[10] = test system: SK-MEL-5 melanoma

SMILES | GI50 [1] | TGI [1] | GI50 [2] | TGI [2] | GI50 [3] | TGI [3] | GI50 [4] | TGI [4] | GI50 [5] | TGI [5] | GI50 [6] | TGI [6] | GI50 [7] | TGI [7] | GI50 [8] | TGI [8] | GI50 [9] | TGI [9] | GI50 [10] | TGI [10]
Fc1cccc(COc2ccc(Nc3ncnc4onc(-c5ccccc5)c34)cc2)c1 | 0.175 µM | > 100 µM | 0.347 µM | > 100 µM | 0.202 µM | 0.787 µM | 0.172 µM | 0.806 µM | 0.206 µM | > 100 µM | 0.0393 µM | > 100 µM | 0.138 µM | 0.905 µM | 0.405 µM | > 26.7 µM | 0.185 µM | 1.09 µM | 0.299 µM | 30.4 µM
CSc1ccc(C2=NN(C(C)=O)C(c3ccc(-c4cc(Cl)c(Cl)cc4Cl)o3)C2)cc1 (stereo not given) | 17 µM | 33 µM | 16.6 µM | 30.8 µM | 16.8 µM | 32.1 µM | 15.5 µM | 29 µM | 19.5 µM | 39.9 µM | 12.5 µM | 26.5 µM | 13.2 µM | 29.7 µM | 18.3 µM | 45.5 µM | 15.8 µM | 29.5 µM | 12.6 µM | 25.1 µM
CN1C(=O)CCC(N2C(=O)c3cccc(NCCOCCOCCNC(=O)c4cc5c(o4)C(=O)c4ccccc4C5=O)c3C2=O)C1=O (stereo not given) | 1.99 µM | 4.49 µM | 1.38 µM | 2.7 µM | 2.06 µM | 4.04 µM | 1.5 µM | 2.89 µM | 0.151 µM | 0.316 µM | 1.46 µM | 3.54 µM | 1.96 µM | 5.08 µM | 1.66 µM | 3.08 µM | 1.63 µM | 3.02 µM | 0.242 µM | 0.652 µM
COc1nc(N)nc2c1ncn2C1CC(O)C(CO)O1 (stereo not given) | – | > 100 µM | – | > 100 µM | – | > 100 µM | – | > 100 µM | – | > 100 µM | – | > 100 µM | – | > 100 µM | – | > 100 µM | – | > 100 µM | – | > 100 µM
COc1ccccc1C#Cc1ccccc1C#Cc1ccc(OCCCCCCOc2ccccc2C#Cc2ccccc2C#Cc2ccccc2OC)cc1 | > 100 µM | > 100 µM | > 100 µM | > 100 µM | > 100 µM | > 100 µM | > 100 µM | > 100 µM | > 100 µM | > 100 µM | > 100 µM | > 100 µM | > 100 µM | > 100 µM | > 100 µM | > 100 µM | > 100 µM | > 100 µM | > 100 µM | > 100 µM
Cc1ccc2c(C(C[N+](=O)[O-])c3ccccc3)c(-c3ccccc3)[nH]c2c1 (stereo not given) | 18 µM | > 95 µM | 34 µM | > 95 µM | 21.8 µM | > 95 µM | 34 µM | > 95 µM | 10.2 µM | > 95 µM | 13.5 µM | > 95 µM | 3.17 µM | > 95 µM | 36.7 µM | > 95 µM | 22.8 µM | > 95 µM | 50.6 µM | > 95 µM
COc1cc2nc(Nc3cccc(Cl)c3)nc(N)c2cc1OC | 9.89 µM | 27.3 µM | 13.5 µM | 27.8 µM | 1.68 µM | 3.39 µM | 6.74 µM | 22.8 µM | 2.47 µM | 6.62 µM | 4.32 µM | 17.4 µM | 8.44 µM | 26.7 µM | 4.37 µM | > 36.3 µM | 10.2 µM | 22.8 µM | 3.27 µM | 11.2 µM
O=C1C2CCN(CC2)C1CN1CCOCC1 (stereo not given) | – | 37.5 µM | – | 4.53 µM | – | 3.27 µM | – | 20.1 µM | – | 3.28 µM | – | 10.8 µM | – | 1.99 µM | – | 33.9 µM | – | 29 µM | – | 31 µM
COc1ccc(Br)cc1NC(=O)Nc1cccc2c1ccn2Cc1ccnc(N)c1 | 5.64 µM and > 10 µM | 22.7 µM and > 10 µM | 11.7 µM and > 10 µM | 38.6 µM and > 10 µM | 6.48 µM and 4.48 µM | 18.2 µM and > 10 µM | 7.86 µM and > 10 µM | 37.9 µM and > 10 µM | 12.1 µM and > 10 µM | 32 µM and > 10 µM | 3.82 µM and 5.69 µM | 20.7 µM and > 10 µM | 1.89 µM and 2.45 µM | 4.35 µM and > 10 µM | 3.69 µM and 3.61 µM | 17.6 µM and > 10 µM | 3.34 µM and 2.38 µM | 19.3 µM and > 10 µM | 10.2 µM and 5.28 µM | 23 µM and > 10 µM
COc1ccc2cc(-c3cnc4nonc4n3)ccc2c1 | 3.33 µM | > 100 µM | 4.39 µM | > 100 µM | 3.12 µM | > 100 µM | 24.4 µM | > 100 µM | 4.03 µM | > 100 µM | 0.415 µM | > 100 µM | 1.29 µM | > 100 µM | 2.08 µM | > 100 µM | 0.825 µM | 4.88 µM | 1.24 µM | 8.5 µM
OC1CC2CCC(C1)N2CCCN1c2ccccc2Sc2ccc(Cl)cc21 (stereo not given) | – | 7.45 µM | – | 10.7 µM | – | 3.35 µM | – | 9.35 µM | – | 3.59 µM | – | 3.3 µM | – | 4.19 µM | – | 3.67 µM | – | 3.89 µM | – | 3.13 µM
O=C(c1c(F)c(F)c(F)c(F)c1F)c1c(F)c(F)c(F)c(F)c1F | – | 15.4 µM | – | 6.68 µM | – | 3.28 µM | – | 4.64 µM | – | 3.23 µM | – | 2.58 µM | – | 0.392 µM | – | 6.44 µM | – | 2.69 µM | – | 8.24 µM
CCN1CCN(CCNc2nccc(-c3c(-c4ccc(F)c(O)c4)nc4occn34)n2)S1(=O)=O | 4.58 µM | > 100 µM | 2.97 µM | > 100 µM | 4.6 µM | > 100 µM | 3.75 µM | > 100 µM | 3.8 µM | > 100 µM | 3.82 µM | > 100 µM | 2.93 µM | > 100 µM | 5.27 µM | > 100 µM | > 100 µM | > 100 µM | 2.23 µM | 5.89 µM
NCCCCC(NC(=O)C(N)CCCN=C(N)N)C(=O)NC(CCCCN)C(=O)NC(CCCN=C(N)N)C(=O)NC(CCCN=C(N)N)C(=O)NC(CCC(N)=O)C(=O)NC(CCCN=C(N)N)C(=O)NC(CCCN=C(N)N)C(=O)NC(CCCN=C(N)N)C(=O)NCC(=O)NCC(=O)O (stereo not given) | > 50 µM | > 50 µM | > 50 µM | > 50 µM | > 50 µM | > 50 µM | > 50 µM | > 50 µM | > 50 µM | > 50 µM | > 50 µM | > 50 µM | > 50 µM | > 50 µM | > 50 µM | > 50 µM | > 50 µM | > 50 µM | > 50 µM | > 50 µM
COc1cc(-n2ccnc2-c2ccc3ccccc3c2)cc(OC)c1OC | 0.12 µM | > 45.4 µM | 0.246 µM | 14.9 µM | < 0.0282 µM | 0.785 µM | 0.175 µM | 17.5 µM | 3.66 µM | 31.9 µM | < 0.0199 µM | > 45.8 µM | < 0.0175 µM | 13.2 µM | 0.0363 µM | 42.5 µM | 0.099 µM | 2.06 µM | < 0.0198 µM | 12.3 µM
COc1cnc2c(c1)C(=O)c1c-2n(CCCN2CCCC2)c(=O)c2cc([N+](=O)[O-])ccc12 | 0.0463 µM | 1.15 µM | 0.354 µM | 16 µM | 0.0354 µM | 13.8 µM | 0.0186 µM | 1.79 µM | 0.0558 µM | 1.15 µM | < 0.01 µM | 1.46 µM | 0.0607 µM | 3.8 µM | < 0.01 µM | 0.215 µM | 0.0308 µM | 0.353 µM | 0.0671 µM | 0.322 µM
NC(=O)CC1OC(=O)Cc2cc3c(c(O)c21)C(=O)c1c(O)cccc1C3=O (stereo not given) | – | > 100 µM | – | > 100 µM | – | > 100 µM | – | > 100 µM | – | > 100 µM | – | > 100 µM | – | > 100 µM | – | > 100 µM | – | > 100 µM | – | > 100 µM
CCSC[C@@H]1C[C@](O)(c2ccc(Cl)cc2)[C@@H](c2ccc(Cl)cc2)O1 | 17.3 µM | 33.2 µM | 15.2 µM | 28.9 µM | 14.4 µM | 28.7 µM | 15 µM | 30 µM | 15.2 µM | 29.8 µM | 21.8 µM | 48.5 µM | 15.5 µM | 31.4 µM | 18.9 µM | 35.4 µM | 16.5 µM | 31.1 µM | 15.3 µM | 28.7 µM
COc1cc(-c2nn(-c3cccc(NC(=O)Nc4ccc(Cl)c(C(F)(F)F)c4)c3)cc2-c2ccncc2)ccc1Cl | 1.02 µM | 16.7 µM | 2.36 µM | 10.2 µM | 0.711 µM | 1.54 µM | 1.5 µM | > 32.5 µM | 0.838 µM | 2.35 µM | 0.919 µM | > 32.5 µM | 1.14 µM | 6.06 µM | 0.84 µM | 2.54 µM | 1.66 µM | 6.34 µM | 0.818 µM | 2.89 µM
Cc1c(Cn2c(C)nc3c(C(=O)O)cc(N4CCOCC4)cc32)cccc1C(F)(F)F | 54.3 µM | > 100 µM | 25.8 µM | > 100 µM | 49.2 µM | > 100 µM | > 92.9 µM | > 100 µM | > 69.7 µM | > 100 µM | 42.7 µM | > 100 µM | 89 µM | > 100 µM | 11 µM | > 84.4 µM | 72.6 µM | > 100 µM | 47.1 µM | > 100 µM
